Data taken from patent US20250051347A1, “BIFUNCTIONAL CHIMERIC HETEROCYCLIC COMPOUND AND USE THEREOF AS ANDROGEN RECEPTOR DEGRADER” (Hinova Pharmaceuticals, Inc., priority 2021, published 2025).

These compounds were tested against T1, androgen receptor (AR) splicing variant AR-v7 (Homo sapiens, UniProt P10275) (assay: Degradation activity on androgen receptor splicing variant AR-v7 in 22RV1 cells (ELISA)). Conditions: AR-v7 degradation in 22RV1 cells, 48 h, class symbols.
T1 construct: The degradation activity of compounds on AR-v7 in 22RV1 cells; host or cells: 22RV1 cells
T1 sequence (P10275 1-644 isoform P10275-3): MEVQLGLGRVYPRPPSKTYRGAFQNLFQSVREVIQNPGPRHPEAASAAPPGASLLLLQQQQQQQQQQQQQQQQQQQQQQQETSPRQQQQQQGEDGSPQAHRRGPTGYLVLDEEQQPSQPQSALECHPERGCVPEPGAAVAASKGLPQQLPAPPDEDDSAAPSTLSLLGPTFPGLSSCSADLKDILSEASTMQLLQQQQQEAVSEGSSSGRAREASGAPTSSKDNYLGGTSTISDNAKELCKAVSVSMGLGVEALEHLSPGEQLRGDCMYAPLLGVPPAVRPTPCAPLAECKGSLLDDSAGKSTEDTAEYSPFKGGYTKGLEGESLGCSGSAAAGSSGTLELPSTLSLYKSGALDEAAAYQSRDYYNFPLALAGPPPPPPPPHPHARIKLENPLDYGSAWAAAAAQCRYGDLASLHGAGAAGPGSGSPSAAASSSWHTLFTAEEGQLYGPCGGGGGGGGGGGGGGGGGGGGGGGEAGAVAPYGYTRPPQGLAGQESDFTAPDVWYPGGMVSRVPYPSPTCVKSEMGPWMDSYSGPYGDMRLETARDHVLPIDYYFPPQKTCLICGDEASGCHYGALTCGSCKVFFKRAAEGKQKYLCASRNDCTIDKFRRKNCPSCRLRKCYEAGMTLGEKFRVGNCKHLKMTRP
Format: cell-based

Compound | DC50 [nM]
CC(=O)c1nccc(COc2ccc(C(C)(C)c3ccc(O[C@H]4C[C@H](N(C)c5ccc6c(c5)C(=O)N(C5CCC(=O)NC5=O)C6=O)C4)cc3)cc2)n1 (stereo partly drawn) [Example 111, 5-(((trans)-3-(4-(2-(4-((2-acetylpyrimidin-4-yl)methoxy)phenyl)propan-2-yl)phenoxy)cyclobutyl)(methyl)amino)-2-(2,6-dioxopiperidin-3-yl)isoindolin-1,3-dione] | 101 to 1000
CC(C)(c1ccc(OCc2ccnc(N3CC4(COC4)C3)n2)cc1)c1ccc(OCC2CC(Nc3ccc4c(c3)C(=O)N(C3CCC(=O)NC3=O)C4=O)C2)cc1 (centres unmarked) [Example 112, 5-((3-((4-(2-(4-((2-(2-oxa-6-azaspiro[3.3]heptan-6-yl)pyrimidin-4-yl)methoxy)phenyl)propan-2-yl)phenoxy)methyl)cyclobutyl)amino)-2-(2,6-dioxopiperidin-3-yl)isoindolin-1,3-dione] | 11 to 100
CC(C)(c1ccc(OCCCOc2ccc3c(c2)C(=O)N(C2CCC(=O)NC2=O)C3=O)cc1)c1ccc(OCc2ccnc(N3CC4(COC4)C3)n2)cc1 (centres unmarked) [Example 113, 5-(3-(4-(2-(4-((2-(2-oxa-6-azaspiro[3.3]heptan-6-yl)pyrimidin-4-yl)methoxy)phenyl)propan-2-yl)phenoxy)propoxy)-2-(2,6-dioxopiperidin-3-yl)isoindolin-1,3-dione] | 1000 to 5000
CC(C)(c1ccc(OCCNC(=O)c2ccc3c(c2)C(=O)N(C2CCC(=O)NC2=O)C3=O)cc1)c1ccc(OCc2ccnc(N3CC4(COC4)C3)n2)cc1 (centres unmarked) [Example 114, N-(2-(4-(2-(4-((2-(2-oxa-6-azaspiro[3.3]heptan-6-yl)pyrimidin-4-yl)methoxy)phenyl)propan-2-yl)phenoxy)ethyl)-2-(2,6-dioxopiperidin-3-yl)-1,3-dioxoisoindolin-5-carbonylamine] | 1000 to 5000
CC(C)(c1ccc(OCc2cccc(C(=O)C3CC3)n2)cc1)c1ccc(O[C@H]2C[C@H](Nc3ccc4c(c3)C(=O)N(C3CCC(=O)NC3=O)C4=O)C2)cc1 (stereo partly drawn) [Example 117, 5-(((trans)-3-(4-(2-(4-((6-(cyclopropanecarbonyl)pyridin-2-yl)methoxy)phenyl)propan-2-yl)phenoxy)cyclobutyl)amino)-2-(2,6-dioxopiperidin-3-yl)isoindolin-1,3-dione] | 11 to 100
Cc1nnc(-c2ccc(Oc3ccc(C(C)(C)c4ccc(O[C@H]5C[C@@H](Nc6ccc7c(=O)n(C8CCC(=O)NC8=O)cnc7c6)C5)cc4)cc3)cn2)o1 (some centres unmarked) [Example 120] | 11 to 100
CC(O)c1ncc(Oc2ccc(C(C)(C)c3ccc(O[C@H]4C[C@@H](Nc5ccc6c(c5)C(=O)N(C5CCC(=O)NC5=O)C6=O)C4)cc3)cc2)cn1 (some centres unmarked) [Example 127] | 11 to 100
CC(O)c1cnc(Oc2ccc(C(C)(C)c3ccc(O[C@H]4C[C@@H](Nc5ccc6c(c5)C(=O)N(C5CCC(=O)NC5=O)C6=O)C4)cc3)cc2)cn1 (some centres unmarked) [Example 129] | 11 to 100
CC(=O)c1nccc(COc2ccc(C(C)(C)c3ccc(OCCCCCCCCOCCCCNc4ccc5c(c4)C(=O)N(C4CCC(=O)NC4=O)C5=O)cc3)cc2)n1 (centres unmarked) [Example 136, 5-((4-((8-(4-(2-(4-((2-acetylpyrimidin-4-yl)methoxy)phenyl)propan-2-yl)phenoxy)octyl)oxy)butyl)amino)-2-(2,6-dioxopiperidin-3-yl)isoindolin-1,3-dione] | 101 to 1000
CNC(=O)c1noc(COc2ccc(C(C)(C)c3ccc(OCCCNc4ccc5c(c4)C(=O)N(C4CCC(=O)NC4=O)C5=O)cc3)cc2)n1 (centres unmarked) [Example 137, 5-((4-(2-(4-(3-((2-(2,6-dioxopiperidin-3-yl)-1,3-dioxoisoindolin-5-yl)amino)propoxy)phenyl)propan-2-yl)phenoxy)methyl)-N-methyl-1,2,4-oxadiazol-3-carbonylaminomethane] | 11 to 100
CC(C)(c1ccc(OCCCCCCCCOCCCCNc2ccc3c(c2)C(=O)N(C2CCC(=O)NC2=O)C3=O)cc1)c1ccc(OCc2nc(C(N)=O)no2)cc1 (centres unmarked) [Example 138] | 1000 to 5000
CC(C)(c1ccc(OCCCNc2ccc3c(c2)C(=O)N(C2CCC(=O)NC2=O)C3=O)cc1)c1ccc(OCc2nc(C(=O)N3CCC3)no2)cc1 (centres unmarked) [Example 139, 5-((3-(4-(2-(4-((3-(azetidin-1-carbonyl)-1,2,4-oxadiazol-5-yl)methoxy)phenyl)propan-2-yl)phenoxy)propyl)amino)-2-(2,6-dioxopiperidin-3-yl)isoindolin-1,3-dione] | 101 to 1000
CC(C)(c1ccc(OCCCNc2ccc3c(c2)C(=O)N(C2CCC(=O)NC2=O)C3=O)cc1)c1ccc(OCc2nc(C(=O)N3CCCC3)no2)cc1 (centres unmarked) [Example 140, 2-(2,6-dioxopiperidin-3-yl)-5-((3-(4-(2-(4-((3-(pyrrolidin-1-carbonyl)-1,2,4-oxadiazol-5-yl)methoxy)phenyl)propan-2-yl)phenoxy)propyl)amino)isoindolin-1,3-dione] | 101 to 1000
CC(=O)c1nccc(COc2ccc(C(C)(C)c3ccc(OC[C@H]4CCCN4c4ccc5c(c4)C(=O)N(C4CCC(=O)NC4=O)C5=O)cc3)cc2)n1 (stereo partly drawn) [Example 144, 5-((R)-2-((4-(2-(4-((2-acetylpyrimidin-4-yl)methoxy)phenyl)propan-2-yl)phenoxy)methyl)pyrrolidin-1-yl)-2-(2,6-dioxopiperidin-3-yl)isoindolin-1,3-dione] | 1000 to 5000
CC(=O)c1nccc(COc2ccc(C(C)(C)c3ccc(OC[C@@H]4CCCN4c4ccc5c(c4)C(=O)N(C4CCC(=O)NC4=O)C5=O)cc3)cc2)n1 (stereo partly drawn) [Example 145, 5-((S)-2-((4-(2-(4-((2-acetylpyrimidin-4-yl)methoxy)phenyl)propan-2-yl)phenoxy)methyl)pyrrolidin-1-yl)-2-(2,6-dioxopiperidin-3-yl)isoindolin-1,3-dione] | 101 to 1000
CC(=O)c1nccc(COc2ccc(C(C)(C)c3ccc(OC[C@H]4CC[C@H](Nc5ccc6c(c5)C(=O)N(C5CCC(=O)NC5=O)C6=O)CC4)cc3)cc2)n1 (some centres unmarked) [Example 146] | 1000 to 5000
CC(C)(c1ccc(OCc2ccnc(N3CC4(COC4)C3)n2)cc1)c1ccc(OC2CCN(Cc3ccc4c(c3)C(=O)N(C3CCC(=O)NC3=O)C4=O)CC2)cc1 (centres unmarked) [Example 147, 5-((4-(4-(2-(4-((2-(2-oxa-6-azaspiro[3.3]heptan-6-yl)pyrimidin-4-yl)methoxy)phenyl)propan-2-yl)phenoxy)piperidin-1-yl)methyl)-2-(2,6-dioxopiperidin-3-yl)isoindolin-1,3-dione] | 1000 to 5000
CC(C)[C@H](COc1ccc(C(C)(C)c2ccc(OCc3ccnc(N4CC5(COC5)C4)n3)cc2)cc1)Nc1ccc2c(c1)C(=O)N(C1CCC(=O)NC1=O)C2=O (some centres unmarked) [Example 149] | 1000 to 5000
CC(C)[C@@H](COc1ccc(C(C)(C)c2ccc(OCc3ccnc(N4CC5(COC5)C4)n3)cc2)cc1)Nc1ccc2c(c1)C(=O)N(C1CCC(=O)NC1=O)C2=O (some centres unmarked) [Example 150] | 11 to 100
CC(COc1ccc(C(C)(C)c2ccc(OCc3ccnc(N4CC5(COC5)C4)n3)cc2)cc1)Nc1ccc2c(c1)C(=O)N(C1CCC(=O)NC1=O)C2=O (centres unmarked) [Example 151, 5-((1-(4-(2-(4-((2-(2-oxa-6-azaspiro[3.3]heptan-6-yl)pyrimidin-4-yl)methoxy)phenyl)propan-2-yl)phenoxy)propan-2-yl)amino)-2-(2,6-dioxopiperidin-3-yl)isoindolin-1,3-dione] | 11 to 100
CC(C)(c1ccc(OCc2ccnc(N3CC4(COC4)C3)n2)cc1)c1ccc(OC2CCCC[C@H]2Nc2ccc3c(c2)C(=O)N(C2CCC(=O)NC2=O)C3=O)cc1 (some centres unmarked) [Example 152] | 1000 to 5000
CC(C)(c1ccc(OCc2ccnc(N3CC4(COC4)C3)n2)cc1)c1ccc(O[C@H]2CC[C@@H](Nc3ccc4c(c3)C(=O)N(C3CCC(=O)NC3=O)C4=O)CC2)cc1 (some centres unmarked) [Example 153, 5-(((1s,4s)-4-(4-(2-(4-((2-(2-oxa-6-azaspiro[3.3]heptan-6-yl)pyrimidin-4-yl)methoxy)phenyl)propan-2-yl)phenoxy)cyclohexyl)amino)-2-(2,6-dioxopyridin-3-yl)isoindolin-1,3-dione] | 101 to 1000
CC(C)(c1ccc(Oc2ncc(F)c(N3CC4(COC4)C3)n2)cc1)c1ccc(O[C@H]2C[C@@H](Nc3ccc4c(c3)C(=O)N(C3CCC(=O)NC3=O)C4=O)C2)cc1 (some centres unmarked) [Example 157] | 11 to 100
CC(C)(c1ccc(Oc2nc(N3CC4(COC4)C3)ncc2F)cc1)c1ccc(O[C@H]2C[C@@H](Nc3ccc4c(c3)C(=O)N(C3CCC(=O)NC3=O)C4=O)C2)cc1 (some centres unmarked) [Example 158] | 11 to 100
CC(C)(c1ccc(Oc2cncc(N3CC4(COC4)C3)n2)cc1)c1ccc(O[C@H]2C[C@@H](Nc3ccc4c(c3)C(=O)N(C3CCC(=O)NC3=O)C4=O)C2)cc1 (some centres unmarked) [Example 159] | 11 to 100
CC(C)(c1ccc(Oc2ccnc(-n3ccnn3)c2)cc1)c1ccc(O[C@H]2C[C@H](Nc3ccc4c(c3)C(=O)N(C3CCC(=O)NC3=O)C4=O)C2)cc1 (some centres unmarked) [Example 163, 5-((1r,3r)-3-(4-(2-(2-(4-((1H-1,2,3-triazol-2-yl)pyridin-4-yl)oxy)phenyl)propan-2-ylphenoxy)cyclobutyl)amino)-2-(2,6-dioxopiperidin-3-yl)isoindolin-1,3-dione] | 11 to 100
